From ChEMBL document CHEMBL1201862, “PubChem BioAssay data set” (2004)
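Interpolation was linear, between the two tested concentrations surrounding the appropriate level; five concentrations were tested over 48 hours in 96-well plates. GI50 = concentration required for 50% inhibition of growth.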 Activity calls are given as the source filed them. No stated cut-off is given here; in the data, active = GI50 up to about 1.1 µM and inactive = higher.

How the values were obtained:
Experiment in all cases: NCI-60 cell line screen, 48 h
CCRF-CEM = test system: CCRF-CEM
K562 = test system: K562
SK-MEL-28 = test system: SK-MEL-28
PC-3 = test system: PC-3
SR = test system: SR
SK-MEL-5 = test system: SK-MEL-5
NCI-H522 = test system: NCI-H522
786-0 = test system: 786-0
U-251 = test system: U-251
A549 = test system: A549
SNB-19 = test system: SNB-19
UO-31 = test system: UO-31
NCI/ADR-RES = test system: NCI/ADR-RES
T47D = test system: T47D
SF-295 = test system: SF-295
MDA-MB-435 = test system: MDA-MB-435
M14 = test system: M14
RPMI-8226 = test system: RPMI-8226
DU-145 = test system: DU-145
OVCAR-4 = test system: OVCAR-4
HOP-62 = test system: HOP-62
SN12C = test system: SN12C
MCF7 = test system: MCF7
OVCAR-8 = test system: OVCAR-8
TK-10 = test system: TK-10
RXF 393 = test system: RXF 393
SK-MEL-2 = test system: SK-MEL-2
SNB-75 = test system: SNB-75
HT-29 = test system: HT-29
IGROV-1 = test system: IGROV-1
HCC 2998 = test system: HCC 2998
A498 = test system: A498
MDA-MB-231 = test system: MDA-MB-231
UACC-257 = test system: UACC-257
LOX IMVI = test system: LOX IMVI
EKVX = test system: EKVX
NCI-H23 = test system: NCI-H23
HOP-92 = test system: HOP-92
NCI-H226 = test system: NCI-H226
MDA-N = test system: MDA-N
SF-268 = test system: SF-268
CAKI-1 = test system: CAKI-1
UACC-62 = test system: UACC-62
COLO 205 = test system: COLO 205
OVCAR-3 = test system: OVCAR-3
OVCAR-5 = test system: OVCAR-5
KM12 = test system: KM12
Hs-578T = test system: Hs-578T
HCT-15 = test system: HCT-15
SF-539 = test system: SF-539
MOLT-4 = test system: MOLT-4
NCI-H460 = test system: NCI-H460
ACHN = test system: ACHN
SW-620 = test system: SW-620
BT-549 = test system: BT-549
HCT-116 = test system: HCT-116
Malme-3M = test system: Malme-3M

Measured: GI50

Cn1c(=O)nc2n(CCO)ccnc-2c1=O
> 100 µM: HCT-15
inactive: CCRF-CEM > 100 µM | K562 > 100 µM | SK-MEL-28 > 100 µM | PC-3 > 100 µM | SR > 100 µM | SK-MEL-5 > 100 µM | NCI-H522 > 100 µM | 786-0 > 100 µM | U-251 > 100 µM | A549 > 100 µM | SNB-19 > 100 µM | UO-31 > 100 µM | NCI/ADR-RES > 100 µM | T47D > 100 µM | SF-295 > 100 µM | MDA-MB-435 > 100 µM | M14 > 100 µM | RPMI-8226 > 100 µM | DU-145 > 100 µM | OVCAR-4 > 100 µM | HOP-62 > 100 µM | SN12C > 100 µM | MCF7 > 100 µM | OVCAR-8 > 100 µM | TK-10 > 100 µM | RXF 393 > 100 µM | SK-MEL-2 > 100 µM | SNB-75 > 100 µM | HT-29 > 100 µM | IGROV-1 > 100 µM | HCC 2998 > 100 µM | A498 > 100 µM | MDA-MB-231 > 100 µM | UACC-257 > 100 µM | LOX IMVI > 100 µM | EKVX > 100 µM | NCI-H23 > 100 µM | HOP-92 > 100 µM | NCI-H226 > 100 µM | MDA-N > 100 µM | SF-268 > 100 µM | CAKI-1 > 100 µM | UACC-62 > 100 µM | COLO 205 > 100 µM | OVCAR-3 > 100 µM | OVCAR-5 > 100 µM | KM12 > 100 µM | Hs-578T 91.4 µM | SF-539 > 100 µM | MOLT-4 > 100 µM | NCI-H460 > 100 µM | ACHN > 100 µM | SW-620 > 100 µM | BT-549 > 100 µM | HCT-116 > 100 µM | Malme-3M > 100 µM
